Source: US11071730B2, “Substituted 6-azabenzimidazole compounds” (Gilead Sciences, Inc., priority 2018, dated 2021)

Biological target: human HPK1 (MAP4K1) (Homo sapiens (Human), UniProt Q92918)
Assay: HPK1 IC50 Assay (TR-FRET biochemical kinase assay, STK S1 peptide substrate)
Conditions: recombinant human HPK1 kinase domain 0.15 nM, 10 μM ATP, 1 μM STK S1 peptide; geometric mean
Protocol: The enzymatic activity of human HPK1 (MAP4K1) was monitored in a biochemical assay in the presence or absence of compounds and using a synthetic peptide substrate. An increase in phosphorylation of the peptide by HPK1 was indicative of its kinase activity.
Recombinant HPK1 kinase domain produced via baculovirus infection of insect cells was obtained from Proteros (Proteros Biostructures #PR-0322) and was pre-activated in the presence of 2 mM ATP (Sigma-Aldrich, cat #GE27-2056-01) and 2 mM magnesium chloride for 16 hours at 4° C. The protein reaction mixture was then loaded to a desalting column (Thermo Fisher Scientific, Cat #89889) to remove excess ATP. HPK1 was eluted with buffer containing 20 mM Tris (2-Amino-2-(hydroxymethyl)propane-1,3-diol) pH 8.0, 150 mM NaCl, 2 mM dithiothreitol and 5% glycerol, and was frozen at −80° C. for later use.
Ten nanoliters of test compounds dissolved in DMSO at various concentrations were dispensed into a 384-well ProxiPlate (PerkinElmer #6008289). Five microliters of a solution of recombinant HPK1 diluted in HPK1 kinase assay buffer (50 mM BES [N,N-Bis(2-hydroxyethyl)-2-aminoethanesulfonic acid], pH 7.0; 10 mM magnesium chloride; 0.01% Triton X-100; 1 mM dithiothreitol; 0.01% bovine serum albumin; 0.1 mM sodium orthovanadate) was added to the compound-containing plate and was incubated for 15 minutes at 25° C. Five microliters of a mixture of ATP (Sigma-Aldrich #A6559) and peptide substrate STK S1 (Cisbio #61ST1BLC) diluted in HPK1 kinase assay buffer was then added to start the reaction. Final concentrations were 0.15 nM for HPK1, 10 μM for ATP, and 1 μM for the STK S1 peptide substrate. The reaction mixture was incubated at 25° C. for 3 hours and was stopped with the addition of 10 μl of an EDTA (Ethylenediaminetetraacetic acid)-containing detection buffer (Cisbio #62SDBRDF) supplemented with Europium cryptate-labeled anti-phospho-serine/threonine antibodies (Cisbio #62ST1PEJ) and XL665-labeled streptavidin (Cisbio #610SAXLG). The mixture was incubated for 16 hours at room temperature and peptide phosphorylation was measured by time-resolved fluorescence energy transfer (665 nm/620 nm) on an Envision plate reader (PerkinElmer).
Data in Table 1 were normalized based on positive (staurosporine) and negative (DMSO) controls. Least squares curve fittings were performed using a four-parameter variable slope nonlinear regression model. IC50 is defined as the concentration of compound required to inhibit 50% of maximum phosphorylation. IC50 values from multiple experiments were averaged by geometric mean and the standard deviation was calculated.

human HPK1 (MAP4K1), sequence (Q92918 17-274): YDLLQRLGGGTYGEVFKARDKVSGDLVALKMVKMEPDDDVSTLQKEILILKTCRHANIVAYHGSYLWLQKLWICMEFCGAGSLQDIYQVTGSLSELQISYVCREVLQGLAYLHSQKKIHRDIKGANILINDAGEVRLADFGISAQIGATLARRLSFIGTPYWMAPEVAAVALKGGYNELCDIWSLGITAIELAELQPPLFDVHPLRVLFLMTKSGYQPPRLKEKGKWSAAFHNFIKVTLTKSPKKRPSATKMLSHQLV

Row | Structure (SMILES) | IC50
1 | CC[C@H](O)C(=O)N1CCC2(CC1)C(=O)N([C@H]1C[C@@H](N3CCC(C)(C)C3)C1)c1cc(-c3cc4ncn(C(C)C)c4c(Nc4ccncc4F)n3)ccc12 [Example 116] | 0.4 nM
2 | CC(=O)N1CCC2(CC1)C(=O)N([C@H]1C[C@@H](N3C4CCCC3CC4)C1)c1cc(-c3cc4ncn(C(C)C)c4c(Nc4ccncc4F)n3)ccc12 [Example 186] | 0.3 nM
3 | CC(=O)N1CCC2(CC1)C(=O)N([C@H]1C[C@@H](N3CCCCC3)C1)c1cc(-c3cc4ncn(C(C)C)c4c(Nc4cc(CO)ncc4F)n3)ccc12 [Example 98] | 1 nM
4 | CC(=O)N1CCC2(CC1)C(=O)N([C@H]1C[C@@H](N3CC4CCC3CC4)C1)c1cc(-c3cc4ncn(C(C)C)c4c(Nc4ccncc4F)n3)ccc12 [Example 193] | 0.3 nM
5 | CC(=O)N1CCC2(CC1)C(=O)N([C@H]1C[C@@H](N3C[C@H]4CC[C@H]4C3)C1)c1cc(-c3cc4ncn(C(C)C)c4c(Nc4ccncc4F)n3)ccc12 [Example 172] | 0.1 nM
6 | CC(C)n1cnc2cc(-c3ccc4c(c3)N([C@H]3C[C@@H](N5CC6CCC(C6)C5)C3)C(=O)C43CCN(C(=O)[C@@H](C)O)CC3)nc(Nc3ccncc3F)c21 [Example 126] | 0.1 nM
7 | Cc1cnc(Nc2nc(-c3ccc4c(c3)N([C@H]3C[C@@H](N5CCCCC5)C3)C(=O)C4(C)C)cc3ncn(C(C)C)c23)cc1C(=O)NC1(CF)CC1 [Example 195] | 6 nM
8 | CC(C)n1cnc2cc(-c3ccc4c(c3)N([C@H]3C[C@@H](N5CC(C)(C)C5)C3)C(=O)C4(C)C)nc(Nc3cc(CO)ncc3F)c21 [Example 100] | 3.1 nM
9 | CCC(=O)N1CCC2(CC1)C(=O)N([C@H]1C[C@@H](N3CCCCC3)C1)c1cc(-c3cc4ncn(CC)c4c(Nc4ccncc4F)n3)ccc12 [Example 168] | 2.6 nM

Results, then the compound that gave them:

Row | IC50 | Structure (SMILES)
10 | 0.3 nM | CC(C)n1cnc2cc(-c3ccc4c(c3)N([C@H]3C[C@@H](N5CCCCC5)C3)C(=O)C43CCN(C(=O)C(C)(C)C)CC3)nc(Nc3ccncc3F)c21 [Example 170]
11 | 0.5 nM | CO[C@H]1C[C@@H](C(=O)N2CCC3(CC2)C(=O)N([C@H]2C[C@@H](N4CCCCC4)C2)c2cc(-c4cc5ncn(C(C)C)c5c(Nc5ccncc5F)n4)ccc23)C1 [Example 136, 6-(4-((3-fluoropyridin-4-yl)amino)-3-isopropyl-3H-imidazo[4,5-c]pyridin-6-yl)-1′-((1s,3 S)-3-methoxycyclobutane-1-carbonyl)-1-((1s,3 S)-3-(piperidin-1-yl)cyclobutyl)spiro[indoline-3,4′-piperidin]-2-one]
12 | 0.4 nM | CC[C@H](O)C(=O)N1CCC2(CC1)C(=O)N([C@H]1C[C@@H](N3CCCCC3)C1)c1cc(-c3cc4ncn(C(C)C)c4c(Nc4ccncc4F)n3)ccc12 [Example 115]
13 | 0.3 nM | CO[C@H](C)C(=O)N1CCC2(CC1)C(=O)N([C@H]1C[C@@H](N3CCCCC3)C1)c1cc(-c3cc4ncn(C(C)C)c4c(Nc4ccncc4F)n3)ccc12 [Example 153]
14 | 0.3 nM | CC(C)n1cnc2cc(-c3ccc4c(c3)N([C@H]3C[C@@H](N5CCCCC5)C3)C(=O)C43CCN(C(=O)C4CC4)CC3)nc(Nc3ccncc3F)c21 [Example 143]
15 | 0.3 nM | COC1(C(=O)N2CCC3(CC2)C(=O)N([C@H]2C[C@@H](N4CCCCC4)C2)c2cc(-c4cc5ncn(C(C)C)c5c(Nc5ccncc5F)n4)ccc23)CCC1 [Example 107]
16 | 0.4 nM | CC[C@@H](O)C(=O)N1CCC2(CC1)C(=O)N([C@H]1C[C@@H](N3CCCCC3)C1)c1cc(-c3cc4ncn(C(C)C)c4c(Nc4ccncc4F)n3)ccc12 [Example 114]
17 | 1.3 nM | CCn1cnc2cc(-c3ccc4c(c3)N([C@H]3C[C@@H](N5CCCCC5)C3)C(=O)C43CCN(C(=O)C(C)C)CC3)nc(Nc3ccncc3F)c21 [Example 148]
18 | 0.4 nM | CC(=O)N1CCC2(CC1)C(=O)N([C@H]1C[C@@H](N3CCC4CC4C3)C1)c1cc(-c3cc4ncn(C(C)C)c4c(Nc4ccncc4F)n3)ccc12 (stereo partly shown) [Example 183]

Same assay, conditions: recombinant human HPK1 kinase domain 0.15 nM, 10 μM ATP, 1 μM STK S1 peptide; geometric mean of multiple experiments

Row | Structure (SMILES) | IC50
19 | CC(C)n1cnc2cc(-c3ccc4c(c3)N([C@H]3C[C@@H](N5CCC[C@@H](C)C5)C3)C(=O)C43CCN(C4COC4)CC3)nc(Nc3ccncc3F)c21 [Example 41] | 0.6 nM
20 | CNC(=O)c1cc(Nc2nc(-c3ccc4c(c3)N([C@H]3C[C@@H](N5CCCCC5)C3)C(=O)C4(C)C)cc3ncn(C(C)C)c23)c(F)cn1 [Example 88] | 8.2 nM
21 | CC(C)n1cnc2cc(-c3ccc4c(c3)N([C@H]3C[C@@H](N5C[C@@H](C)[C@@H](C)C5)C3)C(=O)C43CCN(C(=O)C4(C)COC4)CC3)nc(Nc3ccncc3F)c21 [Example 8] | 0.2 nM
22 | CC(C)n1cnc2cc(-c3ccc4c(c3)N([C@H]3C[C@@H](N5CCC(C)(C)C5)C3)C(=O)C43CCN(C(=O)C4CCO4)CC3)nc(Nc3ccncc3F)c21 (mixture of isomers) [Example 78, 1-((1s,3s)-3-(3,3-dimethylpyrrolidin-1-yl)cyclobutyl)-6-(4-((3-fluoropyridin-4-yl)amino)-3-isopropyl-3H-imidazo[4,5-c]pyridin-6-yl)-1′-(oxetane-2-carbonyl)spiro[indoline-3,4′-piperidin]-2-one] | 0.7 nM
23 | CC(C)n1cnc2cc(-c3ccc4c(c3)N([C@H]3C[C@@H](N5CC(O)C(C)(C)C5)C3)C(=O)C43CCN(C4COC4)CC3)nc(Nc3ccncc3F)c21 (stereo partly shown) [Example 37, 6-(4-((3-fluoropyridin-4-yl)amino)-3-isopropyl-3H-imidazo[4,5-c]pyridin-6-yl)-1-((1s,3s)-3-(4-hydroxy-3,3-dimethylpyrrolidin-1-yl)cyclobutyl)-1′-(oxetan-3-yl)spiro[indoline-3,4′-piperidin]-2-one] | 0.2 nM
24 | CC(C)n1cnc2cc(-c3ccc4c(c3)N([C@H]3C[C@@H](N5CCCC(C)(C)C5)C3)C(=O)C4(C)C)nc(Nc3ccc(=O)[nH]c3)c21 [Example 82] | 0.1 nM
25 | CC(C)n1cnc2cc(-c3ccc4c(c3)N([C@H]3C[C@@H](N5CCCC(C)(C)C5)C3)C(=O)C43CCN(C4COC4)CC3)nc(Nc3ccncc3F)c21 [Example 45] | 0.2 nM
26 | CC(C)n1cnc2cc(-c3ccc4c(c3)N([C@H]3C[C@@H](N5CCCCC5)C3)C(=O)C43CCN(C(=O)C4(C)COC4)CC3)nc(Nc3ccc(F)nc3F)c21 [Example 96] | 0.2 nM
27 | CC(C)n1cnc2cc(-c3ccc4c(c3)N([C@H]3C[C@@H](N5CCCCC5)C3)C(=O)C4(C)C)nc(Nc3c(F)cncc3F)c21 [Example 65] | 0.7 nM
28 | CC(C)n1cnc2cc(-c3ccc4c(c3)N([C@H]3C[C@@H](N5CCCC(C)(C)C5)C3)C(=O)C4(C)C)nc(Nc3ccc(=O)n(C)c3)c21 [Example 81] | 0.2 nM
29 | CC(C)n1cnc2cc(-c3ccc4c(c3)N([C@H]3C[C@@H](N5C[C@@H](C)[C@@H](C)C5)C3)C(=O)C43CCN(C(=O)[C@@H]4CCCO4)CC3)nc(Nc3ccncc3F)c21 [Example 9] | 0.2 nM
30 | CCn1cnc2cc(-c3ccc4c(c3)N([C@H]3C[C@@H](N5CC(C)(C)C5)C3)C(=O)C4(C)C)nc(Nc3ccncc3F)c21 [Example 85] | 2.5 nM
31 | [2H]C1([2H])N([C@H]2C[C@@H](N3C(=O)C(C)(C)c4ccc(-c5cc6ncn(C(C)C)c6c(Nc6ccncc6F)n5)cc43)C2)C([2H])([2H])C([2H])([2H])C([2H])([2H])C1([2H])[2H] [Example 63] | 0.3 nM
32 | CC(C)n1cnc2cc(-c3ccc4c(c3)N([C@H]3C[C@@H](N5CCC6(CC6)C5)C3)C(=O)C4(C)C)nc(Nc3ccncc3F)c21 [Example 56] | 0.8 nM
33 | CC(C)n1cnc2cc(-c3ccc4c(c3)N([C@H]3C[C@@H](N5C[C@@H](C)[C@@H](C)C5)C3)C(=O)C4(C)C)nc(Nc3ccncc3F)c21 [Example 57] | 0.4 nM
34 | CC(C)n1cnc2cc(-c3ccc4c(c3)N([C@H]3C[C@@H](N5CCC(C)(C)C5)C3)C(=O)C43CCN(C(=O)C4CCCOC4)CC3)nc(Nc3ccncc3F)c21 (stereo partly shown) [Example 25] | 0.2 nM

More lines, now with the values ahead:

Row | IC50 | Structure (SMILES)
35 | 0.1 nM | CC(C)n1cnc2cc(-c3ccc4c(c3)N([C@H]3C[C@@H](N5CCCCC5)C3)C(=O)C43CCN(C(=O)C45CC(F)(C4)C5)CC3)nc(Nc3ccncc3F)c21 [Example 28]
36 | 0.5 nM | CC(C)n1cnc2cc(-c3ccc4c(c3)N([C@H]3C[C@@H](N5CCC(C)(C)C5)C3)C(=O)C43CCN(C(=O)C4COC4)CC3)nc(Nc3ccncc3F)c21 [Example 76]
37 | 0.3 nM | CC(C)n1cnc2cc(-c3ccc4c(c3)N([C@H]3C[C@@H](N5CCCCC5)C3)C(=O)C43CCN(C(=O)C4CCO4)CC3)nc(Nc3ccncc3F)c21 (stereo partly shown) [Example 22]
